Test results as given in article PMC7506137, “Selective Phosphodiesterase 1 Inhibitor BTTQ Reduces Blood Pressure in Spontaneously Hypertensive and Dahl Salt Sensitive Rats: Role of Peripheral Vasodilation” (Frontiers in Physiology, 2020).

Columns and labels:
Sprague Dawley rats = test: Rat ear temperature (vasodilation); assay type: in vivo
Procedure: Male Sprague Dawley rats at 6 to 7 weeks were dosed orally by p.o. gavage with different doses of BTTQ formulated in 1% hydroxyethlycellulose (Dow Corning, Midland, MI, United States) (w/v), 0.25% polysorbate 80 (Sigma-Aldrich, St. Louis, MO, United States) (v/v), and 0.05% antifoam (v/v; Dow Corning, Midland, MI, United States) in purified water. Following dosing, ear temperature was measured by using a k-type thermocouple probe digital thermometer (Cole Parmer) every hour for 6 h and then at 24 h. Blood samples for plasma exposure measurement were obtained at the same time. Blood was collected via a tail snip directly into a 20-μL EDTA-coated capillary and immediately spotted onto a Whatman DMPK-C DBS card (GE Healthcare Bio-Sciences). Tail snips were performed by removing approximately 1 mm of the tail by using a scalpel. Blood flow was initiated by gentle squeezing of the tail. No analgesia or anesthesia was used during blood collections. A single sample and spot were collected per time point. The DBS cards were allowed to dry for approximately 2 h at room temperature, after which the cards were placed in a zip-top bag, stored, and shipped at ambient temperature.
All data in this manuscript were presented as mean ± SEM with a significance level of p < 0.05, and n represents the number of individual animals. The significance of differences in concentration-response curves in the ear temperature and, myograft study were calculated using t-test, compare to the vehicle group. The EC50 was calculated using GraphPad Prism 8.3 using a 4-parameter logistic non-linear curve fit model. Single-dose rat telemetry data for normal and SHR rats and repeat-dose telemetry data in Dahls salt-sensitive rats were analyzed by two-way repeated measures ANOVA. Treatment group main effects were compared by Tukey’s HSD method. All telemetry data were analyzed with GraphPad Prism 8.3.

[1] = system: mesenteric arteries from Dahl SS rats; test: Myography in isolated mesenteric arteries; parameters: species or system Rat
From the text: For studies of the mesenteric arteries, rats were anesthetized using 5% isoflurane gas followed by euthanasia by secondary method. Small mesenteric arteries (∼300-μm internal diameter, 350-μm external diameter) supplying the small intestine were carefully excised under a dissecting microscope (Leica; Buffalo, NY, United States) and immersed in a cold physiological salt solution having the following ionic composition (in mM): NaCl (119.0), KCl (4.7), CaCl2 (1.6), NaH2PO4 (1.18), MgSO4 (1.17), NaHCO3 (24.0), D-glucose (5.5), and EDTA (0.03). The arteries were cannulated at the proximal and distal ends using glass micropipettes. The vessels were equilibrated with a 21% O2, 5% CO2, 74% N2 gas mixture at 37°C in the physiological salt solution for 30 min. The intraluminal pressure was maintained at 80 mmHg to approximate in vivo conditions, and the internal diameter of the artery was measured using television microscopy. Responses to vasodilator stimuli (different BTTQ concentrations) were determined in arteries precontracted with 10 μM phenylephrine (PE) and expressed as % increase from basal (PE-precontracted) diameter. Responses of the mesenteric arteries to the endothelium-dependent vasodilator agonist acetylcholine (ACh) were evaluated in SS rats fed a high salt diet (4% NaCl) for 3 weeks and treated with BTTQ (3 mg/kg) p.o. gavage twice daily or vehicle.

[2] = Rat PK parameters (IV and oral); assay type: in vivo

For `O=c1c2nnc(C3(C4CC4)CC3)n2c2c(n1CC1CC1)CCCC2` [BTTQ, 1-[1,1′-bi(cyclopropyl)-1-yl]-5-(cyclopropylmethyl)-6,7,8,9-tetrahydro[1,2,4]triazolo[4,3-A]quinoxaline-4(5H)-one], the “increase of ear temperature compared to the vehicle control” value (Sprague Dawley rats; 3 mg/kg single oral dose, within 1 h) was 14%, the ear temperature (Sprague Dawley rats; 0.1, 0.3, and 1 mg/kg single oral dose) was “significant dose-dependent increase” and the ED50 (Sprague Dawley rats; Rattus norvegicus, single oral dose, 1 h time point, four parametric logistic equation, read-out: median effective dose (ED50), ear temperature) was 0.14 mg/kg. The “time at which ear temperature returned to baseline” value (Sprague Dawley rats; all doses, single oral dose) was 6 h, the “time for which the increase in ear temperature stayed significant” value (Sprague Dawley rats; single oral dose) was “up to 3 h” and the “relaxation, % of the initial fully relaxed diameter” value ([1]; 1 mM, arteries pre-constricted with 10 μM phenylephrine) was “about 92%”. For the same compound, the “acetylcholine-induced vasorelaxation, treated vs vehicle group” value ([1]; arteries from Dahl SS rats treated by oral gavage (3 mg/kg twice daily), high salt diet 21 days) was “no significant difference”, the “relaxation of mesenteric arteries compared to the vehicle” value ([1]; escalating concentrations, pre-constricted with 10 μM phenylephrine) was “concentration-dependent relaxation” and the “% of dose recovered in urine” value [2] was 0.4%. The clearance ([2]; in vivo, 1 mg/kg, IV 1 mpk, mean ± SD, 3 animals) was 3.2 ± 0.6 mL/min/kg, the Vd ([2]; in vivo, 1 mg/kg, IV 1 mpk, mean ± SD, 3 animals, read-out: IV Vdss) was 0.6 ± 0.04 L/kg and the half-life ([2]; in vivo, 1 mg/kg, IV 1 mpk, mean ± SD, 3 animals, read-out: IV t1/2 (converted)) was 2.7 ± 0.5 h. It also gave a bioavailability ([2]; in vivo, IV 1 mpk and oral 10 mpk, mean ± SD, 3 animals) of 58 ± 20%.
